Key:
GUMC-403 [1] = assay: viability at highest tested concentration (max response) relative to DMSO (% of DMSO control); higher = less cytotoxic; details: library / dose series: MIPE library, 11-point 1:3 dilution, 48 h
Method in brief: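 GUMC-403 papilloma cells, derived from a patient and expanded by conditional reprogramming, were dispensed at 700/well into 1536-well plates in 5 μL F + Y medium. A pin tool delivered 23 nL of each compound across an 11-point 1:3 dilution series for 48 h. CellTiter-Glo luminescence, read on a ViewLux, was normalised so that vehicle wells equalled 100% and empty wells 0%. Values report viability at the highest tested concentration relative to vehicle control.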

GUMC-403 [2] = assay: AC50 for reduction of cell viability; higher = less potent; details: 48 h
[3] = library / dose series: MIPE library, 11-point 1:3 dilution

| Compound | viability (GUMC-403 [1]; top concentration 46.1 µM) | AC50 for reduction of cell viability (GUMC-403 [2]; [3]) | AC50 for reduction of cell viability (GUMC-403 [2]; library / dose series: NPC library, 8-point 1:5 dilution) | viability (GUMC-403 [1]; top concentration 92.2 µM) |
| --- | --- | --- | --- | --- |
| O=C(Nc1cccc(Nc2ncc(Br)c(NCCc3cnc[nH]3)n2)c1)N1CCCC1 | 6.39 | 20900 nM | – | – |
| Cc1nc(Nc2n[nH]c3c2CN(C(=O)N[C@H](CN(C)C)c2ccccc2)C3(C)C)c2sccc2n1 | 7.84 | 3720 nM | – | – |
| N[S+](=O)([O-])c1cccc2c1C(=O)c1cccc(O)c1C2=O | 4.44 | 13200 nM | – | – |
| CCOc1cc2ncc(C#N)c(Nc3ccc(F)c(Cl)c3)c2cc1NC(=O)/C=C/CN(C)C | 76.1 | 29.6 nM | – | – |
| COc1cc2ncnc(Nc3cc(Br)c(O)c(Br)c3)c2cc1OC | 73.9 | 1480 nM | – | – |
| CC(=O)N1CCN(c2ccc(OCc3nn(C)c(C)c3-c3cccc4c(CCCOc5cccc6ccccc56)c(C(=O)O)n(Cc5cccnc5)c34)cc2)CC1 | 3.86 | 7430 nM | – | – |
| Cc1nc2cnc3ccc(C#Cc4cccnc4)cc3c2n1-c1ccc(C(C)(C)C#N)cc1 | 46.6 | 93.5 nM | – | – |
| Nc1nc(NCCNc2ncc(-n3ccnc3)c(-c3ccc(Cl)cc3Cl)n2)ccc1[N+](=O)[O-] | 61.4 | 2350 nM | – | – |
| CC(=O)Nc1nc(C)c(-c2ccc(Cl)c([S+](=O)([O-])NCCO)c2)s1 | 12.5 | 14800 nM | – | – |
| CNC(=O)c1ccc(N2C(=S)N(c3cnc(C#N)c(C(F)(F)F)c3)C(=O)C23CCC3)cc1F | 16.6 | 13200 nM | – | – |
| CC(C)c1cnn2c(NCc3ccccc3)cc(N[C@@H](CO)[C@H](O)CO)nc12 | 19.1 | 372 nM | – | – |
| Nc1cccc(-c2cc3c(Oc4cccc(O)c4)ncnc3[nH]2)c1 | 58 | 8330 nM | – | – |
| COc1ccc(-c2ccc3ncc4c(c3c2)n(-c2ccc(N3CCNCC3)c(C(F)(F)F)c2)c(=O)n4C)cn1 | 3.16 | 8330 nM | – | – |
| C[C@@H]1O[C@@H](O[C@H]\2CC[C@]\3(C)[C@@H]4CC[C@]5(C)[C@@H](CC[C@@]5(O)[C@H]4CCC3=C2)C/6=C/OC(=O)/C=C6)[C@H](O)[C@H](O)[C@@H]1O | 44.3 | 16.6 nM | – | – |
| ClC1=CC\2=C(NC(=O)\C(=C2N[C@@H]3CN4CCC3CC4)C5=NC6=C([NH]5)C=CC=C6)C=C1 | 16.4 | 3320 nM | – | – |
| O=C1NC(=O)/C(=C/c2ccc3nccc(-c4ccncc4)c3c2)S1 | 18.7 | 235 nM | – | – |
| Cc1nc(N)ncc1-c1nc(N2CCOCC2)c2sc(C(C)(C)O)cc2n1 | 45.7 | 332 nM | – | – |
| Cc1ccc(NC(=O)C2(c3ccc4c(c3)OC(F)(F)O4)CC2)nc1-c1cccc(C(=O)O)c1 | 6.42 | 1660 nM | – | – |
| CCc1cnn2c(NCc3ccc[n+]([O-])c3)cc(N3CCCC[C@H]3CCO)nc12 | 62.2 | 46.9 nM | – | – |

| Compound | viability (GUMC-403 [1]; top concentration 46.1 µM) | AC50 for reduction of cell viability (GUMC-403 [2]; [3]) | AC50 for reduction of cell viability (GUMC-403 [2]; library / dose series: NPC library, 8-point 1:5 dilution) | viability (GUMC-403 [1]; top concentration 92.2 µM) |
| --- | --- | --- | --- | --- |
| C[C@H]([C@H]1C\C(=C(CO)/C(=O)O1)C)[C@H]2CC[C@H]3[C@@H]4C[C@H]5O[C@]56[C@@H](O)\C=C/C(=O)[C@]6(C)[C@H]4CC[C@]23C | 5.02 | 14800 nM | – | – |
| Cc1[nH]c2ccccc2c1CCNCc1ccc(/C=C/C(=O)NO)cc1 | 38.2 | 2640 nM | – | – |
| CN[C@@H]1[C@H](O)[C@H](NC)[C@H]2O[C@@]3(O)C(=O)C[C@@H](C)O[C@H]3O[C@@H]2[C@H]1O | 13.3 | 10500 nM | – | – |
| CNC(=O)c1cccc(-c2ccc3c(N4CCOC[C@@H]4C)nc(N4CCOC[C@@H]4C)nc3n2)c1 | 59 | 23.5 nM | – | – |
| C[S+](=O)([O-])N1CCc2c(-c3cnc(N)nc3)nc(N3CCOCC3)nc21 | 46.2 | 332 nM | – | – |
| CN1\N=C(N)/C2=C[N]([C@@H]3O[C@H](CO[P](O)(O)=O)[C@@H](O)[C@H]3O)C4=C2C1=NC=N4 | 57.8 | 1480 nM | – | – |
| O=C(Nc1c[nH]nc1-c1nc2cc(CN3CCOCC3)ccc2[nH]1)NC1CC1 | 8.38 | 6620 nM | – | – |
| CC/1=C(\O)C(=O)\C=C2/C1=C/C=C3\[C@@]2(C)CC[C@@]4(C)[C@@H]5C[C@@](C)(CC[C@]5(C)CC[C@]34C)C(O)=O | 6.06 | 8330 nM | – | – |
| CC[C@@H]1C(=O)N(C)c2cnc(Nc3ccc(C(=O)NC4CCC(N5CCN(CC6CC6)CC5)CC4)cc3OC)nc2N1C(C)C (some centres not stated) | 6.26 | 20900 nM | – | – |
| CC(C)[C@H](C(=O)Nc1ccc(C(=O)NO)cc1)c1ccccc1 | 11 | 18700 nM | – | – |
| Cc1ccc([N+](=O)[O-])cc1[S+](=O)([O-])N(C)/N=C/c1cnc2ccc(Br)cn12 | 8.42 | 23.5 nM | – | – |
| CN(C)CCN(C)C(=O)c1ccc(NC(=O)Nc2ccc(-c3nc(N4CCOCC4)c4ccn(CC(F)(F)F)c4n3)cc2)cc1 | 5.64 | 118 nM | – | – |
| CN[S+](=O)([O-])CCc1ccc2[nH]cc(C3CCN(C)CC3)c2c1 | 70 | 2350 nM | – | – |
| Cc1ncc(-c2ccnc(Nc3ccc([S+](C)(=O)[O-])cc3)n2)n1C(C)C | 47.8 | 10500 nM | – | – |
| CC(NCc1ccc2c(c1)[nH]/c(=N\C(=O)c1ccc(-c3cn[nH]c3)s1)n2CC(C)(C)O)C(C)(C)C (configuration not stated) | 6.2 | 935 nM | – | – |
| CN[C@@H]1C[C@H]2O[C@@](C)([C@@H]1OC)n1c3ccccc3c3c4c(c5c6ccccc6n2c5c31)C(=O)N[C@H]4O | 8.86 | 1480 nM | – | – |
| CN(c1ncccc1CNc1nc(Nc2ccc3c(c2)CC(=O)N3)ncc1C(F)(F)F)[S+](C)(=O)[O-] | 28 | 7430 nM | – | – |
| CC1(C)Cc2c(sc(NC(=S)NC(=O)c3ccccc3)c2C(=O)O)CO1 | 25.5 | 26400 nM | – | – |
| Oc1ccc(-c2ccc(-c3cc(Nc4cccc(CNC5CC5)c4)[nH]n3)cc2)c(O)c1 | 13.7 | 13200 nM | – | – |

| Compound | viability (GUMC-403 [1]; top concentration 46.1 µM) | AC50 for reduction of cell viability (GUMC-403 [2]; [3]) | AC50 for reduction of cell viability (GUMC-403 [2]; library / dose series: NPC library, 8-point 1:5 dilution) | viability (GUMC-403 [1]; top concentration 92.2 µM) |
| --- | --- | --- | --- | --- |
| CO[C@H]1/C=C\C=C(\C)C(=O)NC2=CC(=O)C(NCCN(C)C)=C(C[C@@H](C)C[C@H](OC)[C@H](O)[C@@H](C)/C=C(/C)[C@@H]1OC(N)=O)C2=O | 5.25 | 1180 nM | – | – |
| CCN1CCN(Cc2ccc(-c3cc4c(N[C@H](C)c5ccccc5)ncnc4[nH]3)cc2)CC1 | 69 | 372 nM | – | – |
| Cc1nc(Nc2ncc(C(=O)Nc3c(C)cccc3Cl)s2)cc(N2CCN(CCO)CC2)n1 | 58.6 | 209 nM | – | – |
| C/C(=N\NC(=S)N1CCC1)c1ccccn1 | 44 | 4180 nM | – | – |
| COc1ncc(-c2ccc3nccc(-c4ccnnc4)c3c2)cc1N[S+](=O)([O-])c1ccc(F)cc1F | 9.41 | 590 nM | – | – |
| CC(C)n1nc(-c2cc3cc(O)ccc3[nH]2)c2c(N)ncnc21 | 69.2 | – | 1190 nM | – |
| CC(C)C[C@H](NC(=O)[C@H](CCc1ccccc1)NC(=O)CN1CCOCC1)C(=O)N[C@@H](Cc1ccccc1)C(=O)N[C@@H](CC(C)C)C(=O)[C@@]1(C)CO1 | 6.18 | 1050 nM | – | – |
| CCC1=C2CN3C(=O)\C4=C(/C=C3/C2=NC5=CC=C(O)C=C15)[C@@](O)(CC)C(=O)OC4 | 78.2 | 4690 nM | – | – |
| C=CC(=O)Nc1cccc(Nc2nc(NC3CCC(N(C)C)CC3)nc3c2ncn3C(C)C)c1 (configuration not stated) | 8.03 | 2960 nM | – | – |
| COc1ccc(F)c(F)c1C(=O)c1cnc(NC2CCN([S+](C)(=O)[O-])CC2)nc1N | 55.6 | 4690 nM | – | – |
| C=CCNC1=C2C[C@@H](C)C[C@H](OC)[C@H](O)[C@@H](C)/C=C(\C)[C@H](OC(N)=O)[C@@H](OC)/C=C\C=C(/C)C(=O)NC(=CC1=O)C2=O | 65.3 | 4180 nM | – | – |
| CNCC[C@H](Oc1cccc2ccccc12)c1cccs1 | 36 | 10500 nM | – | – |
| Clc1ccc(C(c2ccc(Cl)cc2)[n+]2ccn(CC(OCc3ccc(Cl)cc3Cl)c3ccc(Cl)cc3Cl)c2)cc1 (configuration not stated) | 25.1 | 20900 nM | – | – |
| COC1=CC=C(C=N1)C/2=C/C3=C(C)N=C(N)N=C3N(C4CCC(CC4)OCCO)C2=O (configuration not stated) | 4.47 | 264 nM | – | – |
| Nc1cc(C(F)(F)F)c(-c2cc(N3CCOCC3)nc(N3CCOCC3)n2)cn1 | 44 | 1480 nM | – | – |
| CC1=C(/C=C/C(C)=C/C=C/C(C)=C/C(=O)Nc2ccc(O)cc2)C(C)(C)CCC1 | – | 48100 nM | – | 4.3 |
| COc1cc(C[C@@H](CO)[C@H](CO)Cc2ccc(O)c(OC)c2)ccc1O | 34.9 | 2640 nM | – | – |
| CCC[S+](=O)([O-])Nc1ccc(F)c(C(=O)c2c[nH]c3ncc(-c4ccc(Cl)cc4)cc23)c1F | 54.9 | 5900 nM | – | – |

Reference: the supplement of paper PMC6723410
